# Measured values taken from patent US12514845B2, “Ionic-liquid-based formulations for the prevention or treatment of neurological diseases” (Universidade De Aveiro, priority 2022, dated 2026).
# Where two headings read alike, the source gives them in different places.
# Key:
# [1] = test system: N27 dopaminergic neuronal cells exposed to 6OHDA; settings: 20 μM pretreatment 2.5 h before 50 μM 6OHDA, 24 h (FIG. 7)
# Description: (§2) The data are presented as percentage of control and presented as the mean±SEM of at least five repetitions of three independent experiments (n=3). Statistical analysis was performed using one-way ANOVA (non-parametric analysis), followed by the Kruskal-Wallis test, followed by Dunn's multiple comparison test. **p<0.01 compared to CTR or the group of cells exposed to cholinium chloride only +++p<0.001 compared to 6OHDA.
# [2] = test system: N27 dopaminergic neuronal cells exposed to MPP+; settings: 24 h (FIG. 8)
# Description: The data are presented as percentage of control as the mean±SEM of at least five repetitions of three independent experiments (n=3).
# [3] = test system: dopaminergic neurons in the substantia nigra (SN); assay: 6OHDA intrastriatal injection mouse model of PD, TH+ neuron count in SN; type: in vivo; settings: 6-OHDA 10 μg/2 μL right striatum, day 7, vs control group (FIG. 10)
# Description: In an embodiment, the biological neuroprotective effect of [Chol]2[N1(4)inh]+N1(4)inh+N1(4)inh when administrated via brain intraventricular infusion route was evaluated in an mouse model for PD induced by the intracerebral injection of 6OHDA, and the number of dopaminergic neurons in the substantia nigra counted.
# In an embodiment, Male C57BL/6 mice were anesthetized and placed in the digital stereotaxic frame. Once the mouse skull was exposed, and using a digital coordinates system, injection and infusion sites were determined setting the zero at the bregma point. Hereupon, an injection of 6-OHDA (10 μg/2 μL of ascorbic acid 0.1% v/v) was performed in the right striatum (ST) of each animal using the coordinates: medial-lateral (ML): −2 mm; anterior-posterior (AP): 0.6 mm; dorsoventral (DV): −3.0 mm, using a Hamilton syringe at speed of 0.2 μL/min. The delivery of 0.2 mg/kg/day of [Chol]2[N1(4)inh]+N1(4)inh+N1(4)inh was performed as describe above. […]
# The results are expressed as a percentage of Saline (Group (1) which are animals exposed only to saline solution) and represented as the mean±SEM of at least 3 independent experiments (n=3-4). […]
# in vitro = settings: rat
# Description: as §2
# [4] = Afonso 2017, MSc thesis; cited from earlier work
# dopaminergic neurons = settings: PD models; Afonso 2017; cited from earlier work
# [5] = test system: male wistar rats exposed to PQ; type: in vivo; settings: PQ 2.5 mg/kg/day subcutaneous 4 weeks
# Description: (§1) In an embodiment, the biological neuroprotective effect of [Chol]2[N1(4)inh]+N1(4)inh+N1(4)inh when administrated via brain intraventricular infusion route was evaluated in a rat model for PD induced by the exposure to a low chronic dose of PQ, through the analysis of the progression of behavior dysfunction. In this model, the animals are exposed to the toxin during 30 days (4 weeks) and then keeped alive during more 30 days to allow the pathology to progress (Total 8 weeks). The administration of [Chol]2[N1(4)inh]+N1(4)inh started after the first 30 exposure to PQ, via brain intraventricle or intranasal route and lasted the second 30 days. Animals were euthanized at week 8.
# In an embodiment, male wistar rats 8-12 week-old were housed in a temperature/humidity-controlled environment under 12 h light/dark cycle with free access to water and food and subjected to subcutaneous chronic administration of PQ, that was carried out using osmotic minipumps (Alzet Durect, Cupertino, CA) at a dose of 2.5 mg/kg/day with a fluid delivery rate of 0.25 μL/hr for a period of four weeks (Alzet model 2004, large pumps). Control groups were implanted with minipump filled with sterile saline, the vehicle used to dissolve PQ. […] Once the rat skull was exposed and, using a digital coordinates system, the infusion sites were determined setting the zero at the bregma point. […] To evaluate the neuroprotective function of the IL-based formulation when infused in brain ventricle, behavior function was evaluated. Motor coordination, balance and grip strength were analyzed using a rat rotarod apparatus model 47700 (Ugo Basile, Comerio, Italy). […] The training was performed in 2 consecutive days, on each day 4 test trials were assessed, each lasting 5 min. […] The rotarod test was performed under an accelerating protocol (4-40 RPM) for 5 min, and the latency to fall was recorded using a specific software. […]
# [6] = test system: male wistar rats exposed to PQ; type: in vivo; settings: PQ 2.5 mg/kg/day subcutaneous 4 weeks, week 8, vs control group (FIG. 22)
# Description: as §1, with “via intranasal” for “via brain intraventricular infusion”, “in” for “in a”, “of PQ and” for “of PQ,”
# In an embodiment, male wistar rats 8-12 week-old subjected to subcutaneous chronic administration of PQ, that was carried out using osmotic minipumps (Alzet Durect, Cupertino, CA) at a dose of 2.5 mg/kg/day with a fluid delivery rate of 0.25 μL/hr for a period of four weeks (Alzet model 2004, large pumps). […] To evaluate the neuroprotective function of the IL-based formulation when administrated via intranasal route, behavior function was evaluated. Motor coordination, balance and grip strength were analyzed using a rat rotarod apparatus model 47700 (Ugo Basile, Comerio, Italy). […] The training was performed in 2 consecutive days, on each day 4 test trials were assessed, each lasting 5 min. […]
smiles,measurement,setting,value
C[N+](C)(C)CCO.[Cl-] [cholinium chloride],prevention of 6OHDA-induced neurotoxicity (cell viability),[1],not prevented
same,prevention of MPP+ dopaminergic neurotoxicity (cell viability),[2]; 20 μM pretreatment 2.5 h before 10 μM MPP+,did not exert any protective effect
"NCCc1cc(O)c(O)cc1O [6OHDA, 6-hydroxydopamine]",reduction in the number of SN dopaminergic neurons,[3],45%
same,"cytotoxicity at 24 h, 50 µM",in vitro,45%
"COc1cc(C(C)=O)ccc1[O-].C[N+](C)(C)CCO [[Chol][Apo], cholinium apocynate]",increase in water solubility versus Apo,[4],50 fold
same,6OHDA-induced toxicity in dopaminergic neurons,dopaminergic neurons,significant reduction
"C[n+]1ccc(-c2cc[n+](C)cc2)cc1 [PQ, paraquat]",reduction in the distance travelled (open-field),"[5]; week 8, vs control (FIG. 20)",55%
same,reduction of speed (open-field),"[5]; week 8, vs control (FIG. 21)",50%
same,reduction in the latency to fall (rotarod),"[5]; week 8, vs control group (FIG. 19)",43%
same,reduction in the latency to fall (rotarod),[6],47%
"C[n+]1ccc(-c2ccccc2)cc1 [MPP+, 1-methyl-4-phenylpyridinium]",loss of N27 cells viability,[2]; 10 μM MPP+,45%
